According to patent US7893066B2, “Pyridol[2,3-B]pyrazinones for use as stearoyl CoA desaturase inhibitors” (Gilead Palo Alto, Inc., priority 2006, dated 2011):

The compounds below were run against T1, stearoyl-CoA desaturase (SCD) (Rattus norvegicus, UniProt P07308) (assay: SCD assay, rat liver microsomes with [3H]stearoyl CoA (adapted from Talamo and Bloch)). Conditions: second table, same SCD assay.
T1 construct: from tissue; host or cells: liver microsomes of male Sprague Dawley rats, with SCD induced by a carbohydrate-rich diet
T1 sequence (P07308 1-358): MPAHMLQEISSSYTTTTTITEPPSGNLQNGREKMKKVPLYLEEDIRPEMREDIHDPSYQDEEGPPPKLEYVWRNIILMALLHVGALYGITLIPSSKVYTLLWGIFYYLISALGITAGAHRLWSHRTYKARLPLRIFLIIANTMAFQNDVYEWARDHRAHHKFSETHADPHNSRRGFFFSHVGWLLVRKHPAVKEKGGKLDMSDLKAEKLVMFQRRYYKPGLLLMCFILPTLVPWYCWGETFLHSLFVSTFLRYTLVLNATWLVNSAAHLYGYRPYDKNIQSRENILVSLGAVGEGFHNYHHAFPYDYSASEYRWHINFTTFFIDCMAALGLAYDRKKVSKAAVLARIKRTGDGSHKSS
Assay type: biochemical
Excerpt: The identification of compounds of the invention as SCD inhibitors was readily accomplished using the SCD enzyme and microsomal assay procedure described in Talamo and Bloch (1969) Analytical Biochemistry 29:300-304.
The rat liver microsomes were collected according to the procedure described in Ozols (1990) Methods Enzm, 182:225.
Male Spraque Dawley Rats were placed on regimented fasting protocol for one week to stimulate SCD enzymatic activity. 48-hour periods were alternated between feeding and fasting to induce and down-regulate SCD activity with SCD activity being induced via carbohydrate rich diet prior to liver perfusion and collection.
The rats were anesthetized with Isoflurane inhalation anesthetic, the liver perfused with cold phosphate buffered saline (PBS), weighed, and chilled in cold homogenization buffer (250 mM sucrose, 10 mM Tris, 1 mM EDTA, pH 7.6.
The livers were finely minced and placed in homogenization tube. 40 mL of homogenization buffer was added to the homogenization tube and the liver homogenized and centrifuged in a pre-chilled SLA-600 TC at 800G rotor for 10 min at 4° C.
Following centrifugation, the supernatant was collected and the pellet removed and discarded. This supernatant was then centrifuged at 10,000G for 35 minutes. Following centrifugation, the supernatant was collected and the pellet discarded. The supernatant was further centrifuged in a pre-chilled 45-Ti rotor at 130,000 G (41,000 RPM) for 90 minutes at 4° C.
The supernatant was then aspirated off and the collected microsomal pellet washed in 25 mL of Glycerol PBS (1×PBS 7.4, 20% Glycerol) and resuspended in 4-5 volumes of Glycerol PBS.
The protein concentration of the microsomal preparation was determined by BCA assay (Pierce) and the microsomes were aliquoted and stored at −80° C.
Biobeads were ground to a smaller size in a mortar and pestle and filtered through 300 μM mesh and then resuspended in 3.6% TCA.
SCD was determined in the desaturase assay buffer. This assay buffer contained 0.1 M Tris buffer, pH 7.2, 2 mM NADH, 4.8 mM ATP, 0.5 mM CoA, 4.8 mM MgCl2, and 0.1% BSA.
1 μl of each compound of Formula I was added to an assay plate by a low volume (0.5-10 μL) multichannel pipette. A DMSO control was also prepared. The microsomes were quickly thawed and added to assay buffer so that a concentration of 1-0.1 mg/ml was achieved (0.5-0.05 mg/ml assay final). 50 μl of the microsome suspension in assay buffer was then added into each well in the compound assay plate, the plate was covered, and the microsomes preincubated with the compounds for 30-60 minutes on the orbital shaker, 50-75 rpm, at room temperature.
After preincubation, the reaction was initiated by the addition of 50 μl of substrate solution (20 μM Stearoyl CoA, [3H]Stearoyl CoA, 74nCi) to the preincubated microsomes/compound suspensions in MilliQ (Millipore) H2O. The reaction mixtures were then incubated for 45 minutes on the orbital shaker at 50-75 rpm at room temperature.
The reaction was terminated by the addition of 10 μl of 21% trichloroacetic acid (TCA) to the reaction mixture followed incubation on the orbital shaker for 30 minutes at 50-75 rpm at room temperature followed by centrifugation for 5 minutes at 3700 rpm.
50 μl of a 6% Bio-Bead suspension in H2O was added to the reaction mixture and the assay plate was sealed. The Bio-Bead mixture was incubated on the orbital shaker for 1 to 24 hours, 100-150 rpm at room temperature, and then the mixture was centrifuged at 2000g for 5 minutes to pellet the Bio-Beads.
25 μl of the supernatant was harvested from each well and transferred to a detection plate. 100 μl of OptiPhase SuperMix scinitillation cocktail (containing sufficient NaOH to neutralize the TCA) was added and the solutions mixed by vigorous shaking (300-400 rpm) for 5 minutes at room temperature.

Compound	IC50 [µM]
2,3-dihydroxy-N-(2-(3-methyl-2-oxo-7-(3-(trifluoromethyl)benzylamino)quinoxalin-1(2H)-yl)ethyl)propanamide [compound 52]	0.36
3-(2-(4-(2-methoxyethoxy)phenyl)-3-oxo-6-(3-(trifluoromethyl)benzylamino)pyrido[2,3-b]pyrazin-4(3H)-yl)propanamide [compound 30]	0.19
3-(2-(4-ethylphenyl)-3-oxo-6-(3-(trifluoromethyl)benzylamino)pyrido[2,3-b]pyrazin-4(3H)-yl)propanamide [compound 29]	0.15
3-(2-(4-methoxyphenyl)-3-oxo-6-(3-(trifluoromethyl)benzylamino)pyrido[2,3-b]pyrazin-4(3H)-yl)propanamide [compound 6]	0.035
3-(3-oxo-2-(4-propylphenyl)-6-(3-(trifluoromethyl)benzylamino)pyrido[2,3-b]pyrazin-4(3H)-yl)propanamide [compound 31]	0.38
3-(3-oxo-6-(3-(trifluoromethyl)benzylamino)-2-(4-(trifluoromethyl)phenyl)pyrido[2,3-b]pyrazin-4(3H)-yl)propanamide [compound 38]	0.13
3-(6-(3,4-dichlorobenzylamino)-2-(4-methoxyphenyl)-3-oxopyrido[2,3-b]pyrazin-4(3H)-yl)-N-methylpropanamide [compound 12]	0.095
4-(2-(4-methoxyphenyl)-3-oxo-6-(3-(trifluoromethyl)benzylamino)pyrido[2,3-b]pyrazin-4(3H)-yl)butanamide [compound 35]	0.15
COc1ccc(-c2nc3ccc(NCc4ccc(Cl)c(Cl)c4)nc3n([C@H]3CCNC3)c2=O)cc1 [compound 2, (S)-6-(3,4-dichlorobenzylamino)-2-(4-methoxyphenyl)-4-(pyrrolidin-3-yl)pyrido[2,3-b]pyrazin-3(4H)-one]	1.8
COc1ccc(-c2nc3ccc(NCc4cccc(C(F)(F)F)n4)nc3n(CCNC(C)=O)c2=O)cc1 [compound 3, N-(2-(2-(4-methoxyphenyl)-3-oxo-6-((6-(trifluoromethyl)pyridin-2-yl)methylamino)pyrido[2,3-b]pyrazin-4(3H)-yl)ethyl)acetamide]	10
COc1ccc(-c2nc3ccc(NCc4cc(C(F)(F)F)ccn4)nc3n(CCNC(C)=O)c2=O)cc1 [compound 4, N-(2-(2-(4-methoxyphenyl)-3-oxo-6-((4-(trifluoromethyl)pyridin-2-yl)methylamino)pyrido[2,3-b]pyrazin-4(3H)-yl)ethyl)acetamide]	0.18
COc1ccc(-c2nc3ccc(NCc4ccc(Cl)c(Cl)c4)nc3n(C(C)CC(N)=O)c2=O)cc1 (stereo not shown) [compound 5, 3-(6-(3,4-dichlorobenzylamino)-2-(4-methoxyphenyl)-3-oxopyrido[2,3-b]pyrazin-4(3H)-yl)butanamide]	0.053
CC(=O)NCCn1c(=O)cnc2ccc(NCc3cccc(C(F)(F)F)c3)nc21 [compound 7, N-(2-(3-oxo-6-(3-(trifluoromethyl)benzylamino)pyrido[2,3-b]pyrazin-4(3H)-yl)ethyl)acetamide]	0.22
COc1ccc(-c2nc3ccc(NCc4ccccc4)nc3n(CCNC(C)=O)c2=O)cc1 [compound 8, N-(2-(6-(benzylamino)-2-(4-methoxyphenyl)-3-oxopyrido[2,3-b]pyrazin-4(3H)-yl)ethyl)acetamide]	0.84
COc1ccc(-c2nc3ccc(NCc4cccnc4)nc3n(CCNC(C)=O)c2=O)cc1 [compound 9, N-(2-(2-(4-methoxyphenyl)-3-oxo-6-(pyridin-3-ylmethylamino)pyrido[2,3-b]pyrazin-4(3H)-yl)ethyl)acetamide]	30
COc1ccc(-c2nc3ccc(NCc4cccc(F)c4)nc3n(CCNC(C)=O)c2=O)cc1 [compound 10, N-(2-(6-(3-fluorobenzylamino)-2-(4-methoxyphenyl)-3-oxopyrido[2,3-b]pyrazin-4(3H)-yl)ethyl)acetamide]	18
